≈ marks a conversion by molar mass, not a printed value. Like-named read-outs stand apart in the source and are kept apart here. Marks after values point to notes of the source that are not given here.

What is called MIC is the smallest concentration in the dilution series that meets the test's criterion for growth inhibition. High values mean a less susceptible organism, low ones a more susceptible organism.

The test system of one experiment is C. albicans. Kind of experiment: Antifungal activity, cascade microdilution. The note with it: Candida albicans, 24 h, read-out: IC50 (μg/mL) C. albicans. The format is cell-based.
The subject of experiment [1] is P. aeruginosa Human ATCC 27853. Kind of experiment: MIC determination, P. aeruginosa human ATCC 27853. The note with it: Pseudomonas aeruginosa, ATCC27853; Gram-negative; Mueller-Hinton medium, 24 h at 37° C. It is filed as cell-based. The method, boiled down: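 Broth microdilution in Mueller-Hinton medium, inoculum at OD 0.01, compounds (5 mg/mL stock in DMSO/methanol 50/50) serially diluted twofold. Plates incubated 24 h at 37° C. under humid atmosphere, read at OD 620 nm for MIC; duplicates.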

In a further experiment the test system is CHO-K1 cells. Kind of experiment: WST1 cytotoxicity test on CHO-K1 cells. The format is cell-based, Chinese hamster. The note with it: Cricetulus griseus. The procedure, abridged:
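CHO-K1 cells pre-grown 24 h, then exposed to increasing compound concentrations in duplicate for 24 h at 37° C, 5% CO2. Viability read after 20 min with 10% WST-1 in PBS at 450 nm; IC50 from nonlinear regression as concentration cutting viability 50%.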

The subject of a further experiment is P. aeruginosa (1051575). Kind of experiment: Potentiation of erythromycin activity (combination MIC). The note with it: erythromycin 2 μg/mL; concentration of compound required to restore antibiotic activity. It is filed as cell-based, Pseudomonas aeruginosa. The method, then: This method requires the use of a 96-well plate: 100 μL of a liquid culture medium are placed in each well and then seeded with the microbial suspension prepared previously. The required volume to be seeded is calculated for an OD of 0.01, which corresponds to about 5×10^6 bacteria in each well. In this plate, the first line corresponds to a negative control (200 μL of sterile culture medium in each well), the second line corresponds to a positive control (100 μL of sterile culture medium+100 μL of the bacterial suspension), and the third line contains 192 μL of culture medium; 8 μL of compound of formula (I) to be tested are placed in each well. Thereafter, a cascade dilution is performed from this line. L of a doxycycline solution (1 mg dissolved in 20 mL) are then added to each well of lines 3 to 8 to obtain a final antibiotic concentration of 2 μg/mL. 92 μL of bacterial suspension are then added to lines 3 to 8. The results are read (the determination of the MIC (2 μg/mL of doxycycline) in the presence of X g/mL of compound of formula (I)) after 24 hours of incubation at 37° C. under a humid atmosphere. After 24 hours of incubation at 37° C., 40 μL of nitro tetrazolium iodide are added to each well to reveal the presence of live bacteria by staining the medium pink.
The procedure is identical to that indicated in Example 5 above. 8 μL of an antibiotic solution under consideration (1 mg dissolved in 20 mL) are added to obtain a final antibiotic concentration of 2 μg/mL instead of 8 μL of a doxycycline solution.
The results are given in table V. They indicate the concentration of compound of formula (I) required to be able to restore the activity of the antibiotic under consideration.

[2] abbreviates: CHO-K1, 24 h, read-out: IC50 (μg/mL) CHO.
[3] abbreviates: CHO-K1, read-out: IC50 (μg/mL) CHO.

On to `CC(C)NC(=O)CC[C@@H](C)[C@H]1CCC2C3C(C[C@H](O)[C@@]21C)[C@@]1(C)CC[C@H](NCCCNCCCN)CC1C[C@H]3O` (stereo partly drawn) [(5), 3β-norspermidino-N-isopropylcholamide], for which the IC50 in the experiment on C. albicans amounted to 4 µg/mL (≈ 7.11 µM); in the experiment with CHO-K1 cells (setting [2]), 70 µg/mL (≈ 124 µM); in the experiment on CHO-K1 cells (setting [3]) it was 70 µg/mL (≈ 124 µM). The molecule also came in with an MIC in experiment [1] of 64 µg/mL (≈ 114 µM). In addition, the “MIC P. aeruginosa (1051575) compound + erythromycin” value (shortened to “MIC P. aeruginosa”) with P. aeruginosa (1051575) is reported as 32* μg/mL.

In experiment [1], `CC(C)NC(=O)CC[C@@H](C)[C@H]1CCC2C3C(CC[C@@]21C)[C@@]1(C)CC[C@H](NCCCNCCCNCCCN)CC1C[C@H]3O` (stereo partly drawn) [(7), 3β-norspermino-N-isopropylchenodeoxycholamide] displayed a minimum inhibitory concentration (MIC) of 30 µg/mL (≈ 49.7 µM). Moreover, the IC50 in the experiment on CHO-K1 cells (setting [2]) stood at 55 µg/mL (≈ 91.1 µM). Further, the “MIC P. aeruginosa” value in the experiment on P. aeruginosa (1051575) worked out at 15 µg/mL.

For the molecule `CC(C)NC(=O)CC[C@@H](C)[C@H]1CCC2C3C(CC[C@@]21C)[C@@]1(C)CC[C@H](NCCCNCCCN)CC1C[C@H]3O` (stereo partly drawn) [(8), 3β-norspermidino-N-isopropylchenodeoxycholamide], the IC50 in the experiment on C. albicans was found to be 1 µg/mL (≈ 1.83 µM); with CHO-K1 cells (setting [2]), 50 µg/mL (≈ 91.4 µM); in the experiment on CHO-K1 cells (setting [3]) it was 50 µg/mL (≈ 91.4 µM). Further, the MIC in experiment [1] was determined as 54 µg/mL (≈ 98.7 µM). Moreover, in the experiment on P. aeruginosa (1051575), the “MIC P. aeruginosa” value came to 27 µg/mL.

On to `CC(C)NC(=O)CC[C@@H](C)[C@H]1CCC2C3C(CC[C@@]21C)[C@@]1(C)CC[C@H](NCCCNCCCN)CC1C[C@@H]3O` (stereo partly drawn) [(15), 3β-norspermidino-N-isopropylursodeoxycholamide], for which the values for the IC50 with C. albicans, in the experiment with CHO-K1 cells (setting [2]) and in the experiment on CHO-K1 cells (setting [3]) were 14 µg/mL (≈ 25.6 µM), 140 µg/mL (≈ 256 µM) and 85 µg/mL (≈ 155 µM), respectively. In addition, the MIC in experiment [1] came to 56 µg/mL (≈ 102 µM). Further, the “MIC P. aeruginosa” value with P. aeruginosa (1051575) was determined as 55 µg/mL.

For the molecule `CC(C)NC(=O)CC[C@@H](C)[C@H]1CCC2C3CCC4C[C@@H](NCCCN(C)CCCN)CC[C@]4(C)C3C[C@H](O)[C@@]21C` (stereo partly shown) [(25)], in experiment [1], it took 28 µg/mL (≈ 49.9 µM) to inhibit growth (MIC). In addition, the IC50 with CHO-K1 cells (setting [2]) turned out to be 48 µg/mL (≈ 85.6 µM). Besides, the “MIC P. aeruginosa” value in the experiment with P. aeruginosa (1051575) was 28 µg/mL.

Take `CC(C)NC(=O)CC[C@@H](C)[C@H]1CCC2C3C(CC[C@@]21C)[C@@]1(C)CC[C@H](NCCCN(C)CCCN)CC1C[C@H]3O` (stereo partly drawn) [(27), 3β-(bis(3-aminopropyl)methylamine)-N-isopropylchenodeoxycholamide]: the IC50 stood at 2 µg/mL (≈ 3.57 µM) with C. albicans, 100 µg/mL (≈ 178 µM) with CHO-K1 cells (setting [2]) and 100 µg/mL (≈ 178 µM) in the experiment with CHO-K1 cells (setting [3]). Besides, inhibition of growth in experiment [1] (MIC) required 32 µg/mL (≈ 57 µM). Moreover, the “MIC P. aeruginosa” value in the experiment with P. aeruginosa (1051575) was found to be 28 µg/mL.

In experiment [1], `CC(C)NC(=O)CC[C@@H](C)[C@H]1CCC2C3CCC4C[C@@H](NCCCNCCCN)CC[C@]4(C)C3C[C@H](O)[C@@]21C` (stereo partly drawn) [Compound (2), 3β-norspermidino-N-isopropyldeoxycholamide] displayed a minimum inhibitory concentration (MIC) of 28 µg/mL (≈ 51.2 µM). For the same molecule, in the experiment with CHO-K1 cells (setting [2]), the IC50 is 35 µg/mL (≈ 64 µM). Also, in the experiment with P. aeruginosa (1051575), the “MIC P. aeruginosa” value was 3* μg/mL.

As to `CC(C)NC(=O)CC[C@@H](C)[C@H]1CCC2C3C(CC[C@@]21C)[C@@]1(C)CC[C@H](NCCCNCCCCNCCCN)CC1C[C@@H]3O` (stereo partly drawn) [Compound (35), 3β-spermino-N-isopropylursodeoxycholamide], the IC50 in the experiment with C. albicans was 1 µg/mL (≈ 1.62 µM); with CHO-K1 cells (setting [2]), 55 µg/mL (≈ 89 µM); with CHO-K1 cells (setting [3]) it was 55 µg/mL (≈ 89 µM). It took 32 µg/mL (≈ 51.8 µM) to inhibit growth in experiment [1] (MIC). Further, the “MIC P. aeruginosa” value in the experiment on P. aeruginosa (1051575) came to 32 µg/mL.

(Values after US10780101B2, “Amide derivatives of squalamine for the treatment of infections” (VIRBAC, priority 2016, dated 2020).)
